According to patent US9334500B2, “Methods and pharmaceutical compositions for treating cancer” (Agency for Science, Technology and Research, priority 2011, dated 2016):
Read-outs that look alike come from different tables or passages of the source.

Assays:
[1] = tested on: UBASH3B expression; assay: Real-time PCR and Western blot analysis of UBASH3B expression; type: cell-based, human
Method: (§1) All siRNA were designed by 1st Base Singapore except for ETS1 siRNA#1 which was referenced from a previously published paper^7. Oligo miRNA mimics and antagomirs were purchased from Dharmacon, Inc. (Chicago, Ill., USA). For transfection, 30 nM siRNAs, 15 nM miRNA mimics or 100 nM iRNA antagomirs were used to transfect cells. 48 h after transfection cell pellets were collected and subjected indicated assays.
Total RNA including small RNAs was isolated using RNeasy Mini Kit (Qiagen). The microarray hybridization was performed using the Illumina HumanHT-12 V4.0 expression beadchip, and data analysis was performed using GeneSpring software from Agilent Technologies. Microarray data reported herein have been deposited at the NCBI Gene Expression Omnibus with the accession number GSE36693. Reverse transcription and quantitative PCR assays were performed using High Capacity cDNA Archive kit and KAPA SyBr Fast qPCR kit (KAPA Biosystems), respectively. TaqMan MicroRNA assays were used to quantify the level of mature miRNAs as previously described^8. Briefly, 10 ng of total RNA was reverse-transcribed and product was subjected to TaqMan stemloop miRNA assay (Applied Biosystems). RNU6B was used to normalize the data. For quantification of mRNA levels, 18S level was used as internal control. All reactions were analyzed in an Applied Biosystems 7500 Fast. Real-Time PCR system in 96-well plate format. Real-time primer sequences are listed in Supplementary Table 2.
(§2) Western Blotting was performed as described previously^9. Anti-UBASH3B (ab34781) was purchased from Abcam. Anti-EGFR (cs2232), anti-CBL (cs2747) and anti-Pan phosphor-Tyr (cs9411) was purchased from Cell Signaling. Anti-ETS1 (sc350), anti-ZEB1 (sc-2538.8), and anti-ZEB2 (sc-48789) were obtained from Santa Cruz. Anti-Myc and anti-Actin were purchased from Roche Applied Science and Sigma-Aldrich, respectively.

[2] = tested on: UBASH3B 3'-UTR; assay: Luciferase reporter assay with UBASH3B 3'-UTR reporters; type: cell-based; conditions: wild type vs miR-200a binding site mutated reporters; 40 nM mimics
Method: HCT116 cells were plated at a density of 5×10^4 cells per well in 24-well plate format and transfected with 10 ng of pMIR REPORT containing the respective miRNA responsive regions of UBASH3B 3′ UTR sequence, 40 nM of miRNA mimics and 5 ng of pRL null internal control simultaneously on the next day. At 48 h after transfection, the luciferase activities were measured using the Dual Luciferase system (Promega). All luciferase readings were first normalized to corresponding internal control pRL null Renilla luciferase readings. The resulting relative activities were further normalized to appropriate controls.

[3] = tested on: ZEB1 and ZEB2; assay: Western blot of ZEB1 and ZEB2 expression; type: cell-based, human; conditions: MB231 and BT549 overexpressing mimics
Method: as §1, §2

[4] = tested on: MB231-LN xenograft tumor; assay: MB231-LN subcutaneous xenograft tumor growth with Erlotinib treatment; type: in vivo, mice; conditions: 100 mg/kg oral gavage, 6 days per week for 4 weeks
Method: All raw measurements were presented as mean±SEM (standard error of the mean). Comparisons of curves between primary tumor and BLI lung metastasis growth were performed using repeated Anova analysis. Survival analysis was performed using Kaplan-Meier estimator and log-rank test. The relative hazard ratio between different groups was calculated based on Cox-proportional hazards model and presented as HR (95% CI). Other comparisons were performed using unpaired two-sided Student's t-test without equal variance assumption or nonparametric Mann-Whitney test. All statistic calculations were performed with Excel, Stata 7 and EPI info. […] For in vivo Erlotinib treatment, both control cell and UBASH3B KD MB231-LN cells were subcutaneously injected into 6-8 week female nude mice at 5×10^6 cells, followed by treatment with vehicle or Erlotinib (LC lab, #E-4007) at 100 mg/kg by oral gavage with 6 consecutive days per week for 4 weeks after average tumor volume reached around 150 mm^3. Tumors were measured by calliper three times per week and tumors volume was calculated with formula: V=W*W*L/2.

[5] = tested on: MB231-LN; assay: Methylcellulose assay (anchorage-independent growth); conditions: for EC50: Homo sapiens
[6] = tested on: SUM159PT-R (Paclitaxel-resistant SUM159PT) cells; assay: Cell viability assay after Paclitaxel treatment; type: cell-based; conditions: Paclitaxel-resistant SUM159PT with UBASH3B knockdown; 72 hrs
Method: Cell viability assay was performed and EC50 of Paclitaxel in each sample was determined and shown at the top. UBASH3B knockdown efficiency was assessed by Western blotting, shown at the bottom. *P<0.05, paired two-tailed t-test. Error bars, mean+SEM.
Cell viability was determined using CellTiter-Glo Luminescent Cell Viability Assay (Promega) as instructed by manufacturer's manual. 1000 cells were plated in 96-well plate and the readings were taken for 5 consecutive days using CellTiter-Glo kit (Promega).

In the case of N#CC(=C(/N)Sc1ccccc1N)/C(C#N)=C(\N)Sc1ccccc1N [U0126], the UBASH3B expression ([1]; MB231 cells, 5 μM, real-time PCR, indicated time points) is reported as “decrease the UBASH3B expression in a time-dependent manner”.
“miR-200a: oligo miRNA mimic purchased from Dharmacon (UAACACUGUCUGGUAACGAUGU; listed as RNA, chemistry not given here)” was tested, and the UBASH3B expression ([1]; BT549 cells, miR-200a overexpression combined with ETS1 knockdown) was “more pronounced downregulation”, the “UBASH3B mRNA and protein expression” value ([1]; enforced expression of mimics in invasive breast and prostate cancer cells) was “able to reduce” and the “targeting and inhibition of UBASH3B 3'-UTR reporter” value [2] was “direct and specific targeting and inhibition”. The “expression of ZEB1 and ZEB2” value [3] was “could repress”.
C#Cc1cccc(Nc2ncnc3cc(OCCOC)c(OCCOC)cc23)c1 [Erlotinib] was tested, and the “xenograft tumor growth response to Erlotinib” value ([4]; UBASH3B depleted tumors) was “irresponsive”, the “xenograft tumor growth response to Erlotinib” value ([4]; control tumors) was “marked growth inhibition” and the EC50 ([5]; read-out: EC50 of Erlotinib, MB231-LN cells with UBASH3B depletion) was 3850 nM. For the same molecule, the EC50 ([5]; read-out: EC50 of Erlotinib, MB231-LN control cells, without UBASH3B depletion) was 450 nM and the “sensitivity of cells to Erlotinib treatment” value ([5]; UBASH3B-depleted MB231 with ectopic overexpression of EGFR) was “restored the sensitivity”.
For CC(=O)O[C@H]1C(=O)[C@@]2(C)[C@H]([C@H](OC(=O)c3ccccc3)[C@]3(O)C[C@H](OC(=O)[C@H](O)[C@@H](NC(=O)c4ccccc4)c4ccccc4)C(C)=C1C3(C)C)[C@]1(OC(C)=O)CO[C@@H]1C[C@@H]2O [Paclitaxel], the “sensitivity to Paclitaxel treatment” value [6] was “increased sensitivity”, the EC50 ([5]; read-out: EC50 of Paclitaxel, cells with UBASH3B depletion) was 0.61 nM and the EC50 ([5]; read-out: EC50 of Paclitaxel, control cells, without UBASH3B depletion) was 4.53 nM.
